What all share (type): in vivo
Series [1] relates to Armyworm (Mythimna separata (Walker)). Nature of the series: Test against armyworm, Potter tower method. Conditions: for mortality at 12.5 µg/mL / mortality at 50 µg/mL / mortality at 500 µg/mL: Mythimna separata, read-out: Activity (mortality) level against armyworm; for Activity against armyworm, further screening (in words): compared with chlorantraniliprole (D1). In outline:
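Third-instar larvae, ten per dish on corn leaf fragments, were sprayed in a Potter tower with 1 mL of compound in DMF diluted in 0.2% Tween 80, in triplicate. Mortality was scored after 72 h and reported as mean mortality against a solvent blank.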

Series [2] concerns Spodoptera litura (Fabricius). Nature of the series: Test against Spodoptera litura, leaf disc dip. To be noted: after 72 hours; for Activity against Spodoptera litura (in words): second-instar larvae. As for the experimental part:
(§1) The test compound was dissolved in an appropriate solvent such as N,N-dimethylformamide, and then diluted with 0.2% aqueous solution of Tween 80 to the desired concentration, Those without the test compounds were set as blank controls, the treatments were replicated 3 times. The cabbage leaves were perforated to get 18 mm diameter leaf discs by a hole puncher, 5 leaf discs were dipped in the test solution for 10 seconds and then put into a Petri dish (diameter 90 mm) padded with moisturizing filter paper, after air-drying, the leaf discs were infested with no less than ten second-instar larvae of test insects which were starved for 4 hours, and then the dish was covered and placed in a chamber for culture. After 72 hours, the number of dead insects was investigated, the mortality was calculated, and the regression equation, correlation coefficient (r) and the median lethal concentration (LC50) were obtained using Probit analysis method.

Series [3] concerns Diamondback moth (Plutella xylostella (Linnaeus)). Nature of the series: Test against diamondback moth, leaf disc dip. To be noted: second-instar larvae, after 72 hours. As for the experimental part: as §1
For another series, the system named is Aphis fabae. Nature of the series: Test against aphid, leaf dip method (Aphis fabae). Conditions: foliar; for mortality at 12.5 µg/mL: 12.5 mg/L; for mortality at 12.5 µg/mL / mortality at 50 µg/mL / mortality at 200 µg/mL / mortality at 500 µg/mL: read-out: Activity (mortality) level against Aphis fabae; for mortality at 200 µg/mL: 200 mg/L. The gist of the method: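 Horsebean seedlings carrying at least twenty 3-day-old Aphis fabae dipped 5 seconds in compound solutions (DMF, diluted in 0.2% aqueous Tween 80), three replicates with solvent blank. Live and dead insects counted after 24 hours.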

The mark [4] stands for this setting: 12.5 mg/L, third-instar larvae, after 72 hours.
[5] abbreviates: 50 mg/L, third-instar larvae, after 72 hours.
Setting [6] is: 500 mg/L, third-instar larvae, after 72 hours.

Results on four molecules are retold here after patent publication US20220132846A1, “1-PYRIDYL-PYRAZOLYL AMIDE COMPOUNDS AND PREPARATION AND USES THEREOF” (HUNAN RESEARCH INSTITUTE OF CHEMICAL INDUSTRY CO., LTD., priority 2019, published 2022).

In general, mortality refers to the share of the test organisms that died. Usually LC50 stands for the concentration lethal to half of the exposed cells or organisms.

Read-outs that look alike come from different tables or passages of the source.

As to `CCN(C)C(=O)c1cc(Cl)cc(Cl)c1N(C)C(=O)c1cc(Br)nn1-c1ncccc1Cl` [Compound 12, N-[2,4-dichloro-6-[(methyl(ethyl)amino)carbonyl]phenyl]-N-methyl-1-(3-chloro-2-pyridinyl)-3-bromo-1H-pyrazole-5-carboxamide], the mortality at 12.5 µg/mL (in series [1] (setting [4]); with Aphis fabae (after 24 hours)) was 90 to 100% each time. The mortality at 50 µg/mL in series [1] (setting [5]) lay within 90 to 100%; in the series with Aphis fabae (50 mg/L, after 24 hours), 90 to 100%. The mortality at 500 µg/mL in series [1] (setting [6]) fell in the range of 90 to 100%; with Aphis fabae (500 mg/L, after 24 hours) it was 90 to 100%. Also, the “Activity against armyworm, further screening (in words)” value (“Activity against armyworm … (in words)” below) in series [1] is on record as “excellent activity”. Also, the “Activity against Spodoptera litura (in words)” value in series [2] was “high activity at very low concentration”. Besides, the “Activity against diamondback moth (in words)” value in series [3] is “high activity at very low concentration”. The mortality at 200 µg/mL with Aphis fabae (after 24 hours) was 90 to 100%.
Turning to `CCN(CC)C(=O)c1cc(Cl)cc(Cl)c1N(C)C(=O)c1cc(Br)nn1-c1ncccc1Cl` [Compound 15, N-[2,4-dichloro-6-[(diethylamino)carbonyl]phenyl]-N-methyl-1-(3-chloro-2-pyridinyl)-3-bromo-1H-pyrazole-5-carboxamide], the mortality at 12.5 µg/mL (in series [1] (setting [4]); in the series on Aphis fabae (after 24 hours)) was 90 to 100% throughout. Further, the mortality at 50 µg/mL in series [1] (setting [5]) lay within 90 to 100%; in the series on Aphis fabae (50 mg/L, after 24 hours) it was 90 to 100%. Moreover, the mortality at 500 µg/mL in series [1] (setting [6]) was 90 to 100%; with Aphis fabae (500 mg/L, after 24 hours), 90 to 100%. The “Activity against armyworm … (in words)” value in series [1] is recorded as “excellent activity”. Also, in series [2] (same conditions), the “Median lethal concentration LC50 against Spodoptera litura, compared with D1” value is reported as “lower than that of chlorantraniliprole (D1)”. For the same molecule, the “Activity against Spodoptera litura (in words)” value in series [2] is reported as “high activity at very low concentration”. Further, the “Activity against diamondback moth (in words)” value in series [3] is recorded as “high activity at very low concentration”. Also, in the series on Aphis fabae (after 24 hours), the mortality at 200 µg/mL lay in the range of 90 to 100%. Also, the LC50 in the series with Aphis fabae (further test, read-out: LC50 against Aphis fabae) was less than 1 µg/mL.
Take `CCN(C)C(=O)c1cc(Cl)cc(Br)c1N(C)C(=O)c1cc(Br)nn1-c1ncccc1Cl` [Compound 32, N-[2-bromo-4-chloro-6-[(methyl(ethyl)amino)carbonyl]phenyl]-N-methyl-1-(3-chloro-2-pyridinyl)-3-bromo-1H-pyrazole-5-carboxamide]: the mortality at 12.5 µg/mL (in series [1] (setting [4]); with Aphis fabae (after 24 hours)) was 90 to 100% each time. The mortality at 50 µg/mL was in the range of 90 to 100% in series [1] (setting [5]) and 90 to 100% in the series on Aphis fabae (50 mg/L, after 24 hours). Moreover, the mortality at 500 µg/mL in series [1] (setting [6]) was in the range of 90 to 100%; in the series with Aphis fabae (500 mg/L, after 24 hours), 90 to 100%. The “Activity against armyworm … (in words)” value in series [1] was “excellent activity”. In series [2], the “Activity against Spodoptera litura (in words)” value was “high activity at very low concentration”. Further, the “Activity against diamondback moth (in words)” value in series [3] is reported as “high activity at very low concentration”. For the same molecule, the mortality at 200 µg/mL in the series with Aphis fabae (after 24 hours) was in the range of 90 to 100%.
For the molecule `CNC(=O)c1cc(Cl)cc(C)c1NC(=O)c1cc(Br)nn1-c1ncccc1Cl` [Compound D1, chlorantraniliprole, reference compound], the Activity against armyworm result in series [1] (1.25 mg/L) was “less than 50%”. Further, in series [1] (72 h), the mortality at 12.5 µg/mL was in the range of 90 to 100%, the mortality at 50 µg/mL was in the range of 90 to 100% and the mortality at 500 µg/mL lay in the range of 90 to 100%. Also, the “Activity against Spodoptera litura (in words)” value in series [2] is “high activity at very low concentration”. Further, in series [3], the “Activity against diamondback moth (in words)” value is “high activity at very low concentration”. Moreover, in the series with Aphis fabae (24 h), the mortality at 50 µg/mL lay in the range of 0 to 50% and the mortality at 500 µg/mL lay in the range of 90 to 100%.
